In patent US9573954B2, “Pyrazolopyrimidine compounds” (University Health Network, priority 2012, dated 2017):

Experiments:
[1] = test system: colon cancer cells (HCT116); assay: Cancer cell line growth inhibition, Sulforhodamine B assay, HCT116; format: cell-based; conditions: Homo sapiens, HCT-116, 120 h, Table 2; HCT116, 5 days, SRB; read-out: Cancer Cell Line GI50 Range HCT116
In short: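 HCT116 cells, 1000–4000 per well, seeded 24 h ahead, then treated 5 days with compound at 10 nM to 50 μM final in DMEM with 10% FBS. Growth measured by sulforhodamine B staining after TCA fixation, A570; GI50 from inhibition relative to DMSO-only cells.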

[2] = test system: breast cancer cells (MDA-MB-231); assay: Cancer cell line growth inhibition, Sulforhodamine B assay, MDA-MB-231; format: cell-based; conditions: Homo sapiens, 120 h; Table 2; MDA-MB-231, 5 days, SRB; read-out: Cancer Cell Line GI50 Range MDA-MB-231
Experimental: (§1) Breast cancer cells (MDA-MB-231 and MDA-MB-468), colon cancer cells (HCT116) and ovarian cancer cells (PA-1 and OVCAR-3) were seeded (1000 to 4000 in 80 μl per well depending on the cell growth rate) into 96 well plates 24 hours before compound overlay. Compounds were prepared as 10 mM stock solutions in 100% DMSO which were diluted with DMEM (Dulbecco's Modified Eagle's Medium) cell growth Medium (Invitrogen, Burlington, ON, Canada) containing 10% FBS (Fetal Bovine Serum) to concentrations ranging from 50 nM to 250 μM. Aliquots (20 μl) from each concentration were overlaid to 80 μl of the pre-seeded cells in the 96 well plates to make final concentrations of 10 nM to 50 μM. The cells were cultured for 5 days before the Sulforhodamine B assay (SRB) was performed to determine the compound's cell growth inhibition activity.
(§2) Sulforhodamine B (purchased from Sigma, Oakville, ON, Canada) is a water-soluble dye that binds to the basic amino acids of the cellular proteins. Thus, colorimetric measurement of the bound dye provides an estimate of the total protein mass that is related to the cell number. the cells are fixed in situ by gently aspirating off the culture media and adding 50 μl ice cold 10% Trichloroacetic Acid (TCA) per well and incubate at 4° C. for 30-60 min, The plates are washed with H2O five times and allowed to air dry for 5 min. Addition of 50 μl 0.4% (w/v) SRB solution in 1% (v/v) acetic acid to each well and incubation for 30 min at RT completes the staining reaction. Following staining, plates are washed four times with 1% acetic acid to remove unbound dye and then allowed to air dry for 5 min. The stain is solubilized with 100 μl of 10 mM Tris pH 10.5 per well. Absorbance is read at 570 nm.
(§3) The percentage (%) of relative growth inhibition was calculated by comparing to DMSO treated only cells (100%). GI50's were determined for compounds with cytotoxic activity. The GI50 was calculated using GraphPad PRISM software (GraphPad Software, Inc., San Diego, Calif., USA).
(§4) In Table 2 below, GI50 value ranges for compound examples against breast cancer cell lines (MDA-MB-231), colon cancer cell lines (HCT116) and ovarian cancer cell lines (PA-1) are given.

[3] = test system: Ovarian 2393A tumor initiating cells; assay: Tumor-initiating cell growth inhibition, Alamar Blue assay, ovarian TICs; format: cell-based; conditions: 144 h; Table 2; ovarian TICs, 6 days, Alamar Blue; read-out: Tumor Initiating Cell GI50 Range Ovarian 2393A
In short: (§5)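 Colon TICs (4,000/well, non-TC plates) and ovarian TICs (1,000/well, TC plates) kept in serum-free DMEM:F12 with B-27, heparin, bFGF and EGF. Compound added after 24 h at 0.1% DMSO, then 9 days (colon) or 6 days (ovarian) at 37° C. GI50 from Alamar Blue fluorescence (ex 544/em 590) after 4 h.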

[4] = test system: ovarian cancer cells (PA-1); assay: Cancer cell line growth inhibition, Sulforhodamine B assay, PA-1; format: cell-based; conditions: 120 h; Table 2; PA-1, 5 days, SRB; read-out: Cancer Cell Line GI50 Range PA-1
Experimental: as §1, §2, §3
In Table 1 below, GI50 value ranges for compound examples against breast cancer cell lines (MDA-MB-468), colon cancer cell lines (HCT116) and ovarian cancer cell lines (PA-1) are given.
as §4

[5] = test system: Colon 12 tumor initiating cells; assay: Tumor-initiating cell growth inhibition, Alamar Blue assay, colon TICs; format: cell-based; conditions: 216 h; Table 2; colon TICs, 9 days, Alamar Blue; read-out: Tumor Initiating Cell GI50 Range Colon 12
In short: as §5

[6] = biological target: T1, human TTK (Homo sapiens, UniProt P33981); assay: TTK inhibition assay (indirect ELISA); format: biochemical; conditions: Table 2; 16 μM ATP (asterisk); read-out: TTK IC50 Range
T1 construct: Active TTK was purchased from Invitrogen as an amino terminal GST fusion of full length human TTK; purchased Invitrogen
T1 sequence (P33981 1-857): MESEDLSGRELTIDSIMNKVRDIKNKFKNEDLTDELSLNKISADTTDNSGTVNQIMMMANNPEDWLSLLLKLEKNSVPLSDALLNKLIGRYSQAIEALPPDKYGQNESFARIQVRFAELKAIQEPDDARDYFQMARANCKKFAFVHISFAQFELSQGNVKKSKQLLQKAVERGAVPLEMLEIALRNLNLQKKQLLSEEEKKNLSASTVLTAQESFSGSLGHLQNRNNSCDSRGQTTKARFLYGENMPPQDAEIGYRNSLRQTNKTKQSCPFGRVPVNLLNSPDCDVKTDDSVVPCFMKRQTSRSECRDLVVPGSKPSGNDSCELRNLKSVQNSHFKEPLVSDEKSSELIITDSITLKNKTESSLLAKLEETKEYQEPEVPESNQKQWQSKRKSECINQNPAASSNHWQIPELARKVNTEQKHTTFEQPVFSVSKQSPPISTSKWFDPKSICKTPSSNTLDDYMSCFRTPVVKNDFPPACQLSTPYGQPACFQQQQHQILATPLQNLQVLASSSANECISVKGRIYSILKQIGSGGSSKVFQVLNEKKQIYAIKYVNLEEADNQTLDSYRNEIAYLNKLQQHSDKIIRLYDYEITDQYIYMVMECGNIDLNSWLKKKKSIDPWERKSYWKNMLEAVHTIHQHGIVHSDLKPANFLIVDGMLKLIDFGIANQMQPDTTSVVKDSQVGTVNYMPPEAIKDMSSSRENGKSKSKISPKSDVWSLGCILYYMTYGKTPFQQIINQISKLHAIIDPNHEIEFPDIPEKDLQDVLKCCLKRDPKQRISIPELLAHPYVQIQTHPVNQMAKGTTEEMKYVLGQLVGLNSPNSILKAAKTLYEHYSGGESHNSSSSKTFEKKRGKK
In short: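 Activity detected by indirect ELISA after compounds sat with full-length GST-TTK for 5 min prior to starting the reaction with ATP. IC50 came from a four-parameter logistic curve of % inhibition, calculated against background and uninhibited control wells.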

Row | Structure (SMILES) | GI50 [1] [nM] | GI50 [2] [nM] | GI50 [3] [nM] | GI50 [4] [nM] | GI50 [5] [nM] | IC50 [6] [nM]
1 | Cc1cc(-c2cnn3c(NCC4CCOCC4)cc(Oc4ccccc4)nc23)ccc1C(=O)NC1CC1 [Example B1] | ≤ 100 | ≤ 100 | ≤ 100 | ≤ 100 | ≤ 100 | < 100
2 | COCCNc1cc(Oc2ccccc2)nc2c(-c3ccc(C(=O)NC4CC4)cc3)cnn12 [Example B2, N-cyclopropyl-4-(7-((2-methoxyethyl)amino)-5-phenoxypyrazolo[1,5-a]pyrimidin-3-yl)benzamide] | > 500 | > 500 | > 500 | 100 to 500 | 100 to 500 | < 100
3 | O=C(NC1CC1)c1ccc(-c2cnn3c(NCC4CCOCC4)cc(Oc4ccccc4)nc23)cc1 [Example B3, N-cyclopropyl-4-(5-phenoxy-7-(((tetrahydro-2H-pyran-4-yl)methyl)amino)pyrazolo[1,5-a]pyrimidin-3-yl)benzamide] | ≤ 100 | 100 to 500 | 100 to 500 | ≤ 100 | 100 to 500 | < 100
4 | Cc1cc(-c2cnn3c(NCCN4CCOCC4)cc(Oc4ccccc4)nc23)ccc1C(=O)NC1CC1 [Example B5, N-cyclopropyl-2-methyl-4-(7-((2-morpholinoethyl)amino)-5-phenoxypyrazolo[1,5-a]pyrimidin-3-yl)benzamide] | ≤ 100 | ≤ 100 | ≤ 100 | ≤ 100 | ≤ 100 | < 100
5 | O=C(NC1CC1)c1ccc(-c2cnn3c(NCCN4CCOCC4)cc(Oc4ccccc4)nc23)cc1 [Example B6, N-cyclopropyl-4-(7-((2-morpholinoethyl)amino)-5-phenoxypyrazolo[1,5-a]pyrimidin-3-yl)benzamide] | 100 to 500 | 100 to 500 | 100 to 500 | ≤ 100 | 100 to 500 | < 100
6 | O=C(NC1CC1)c1ccc(-c2cnn3c(NCC4CCOCC4)cc(Oc4ccccc4)nc23)cc1Cl [Example B7, 2-chloro-N-cyclopropyl-4-(5-phenoxy-7-(((tetrahydro-2H-pyran-4-yl)methyl)amino)pyrazolo[1,5-a]pyrimidin-3-yl)benzamide] | ≤ 100 | ≤ 100 | ≤ 100 | ≤ 100 | ≤ 100 | < 100
7 | O=C(NC1CC1)c1ccc(-c2cnn3c(NCC4CCOCC4)cc(Oc4ccccc4)nc23)cc1F [Example B8, N-cyclopropyl-2-fluoro-4-(5-phenoxy-7-(((tetrahydro-2H-pyran-4-yl)methyl)amino)pyrazolo[1,5-a]pyrimidin-3-yl)benzamide] | 100 to 500 | 100 to 500 | 100 to 500 | ≤ 100 | 100 to 500 | < 100
8 | Cc1cc(-c2cnn3c(NCC4CCOCC4)cc(Oc4cccnc4)nc23)ccc1C(=O)NC1CC1 [Example B9, N-cyclopropyl-2-methyl-4-(5-(pyridin-3-yloxy)-7-(((tetrahydro-2H-pyran-4-yl)methyl)amino)pyrazolo[1,5-a]pyrimidin-3-yl)benzamide] | ≤ 100 | ≤ 100 | ≤ 100 | ≤ 100 | ≤ 100 | < 100
9 | Cc1cc(-c2cnn3c(NCC4CCOCC4)cc(Oc4cccc(F)c4)nc23)ccc1C(=O)NC1CC1 [Example B12, N-cyclopropyl-4-(5-(3-fluorophenoxy)-7-(((tetrahydro-2H-pyran-4-yl)methyl)amino)pyrazolo[1,5-a]pyrimidin-3-yl)-2-methylbenzamide] | ≤ 100 | ≤ 100 | ≤ 100 | ≤ 100 | ≤ 100 | < 100

More lines, now with the values ahead:

Row | GI50 [1] [nM] | GI50 [2] [nM] | GI50 [3] [nM] | GI50 [4] [nM] | GI50 [5] [nM] | IC50 [6] [nM] | Structure (SMILES)
10 | 100 to 500 | > 500 | > 500 | 100 to 500 | 100 to 500 | < 100 | CCC(CO)Nc1cc(NCC2CCOCC2)n2ncc(-c3ccc(C(=O)NC4CC4)c(C)c3)c2n1 (stereo in doubt) [Example B29, (R)-N-cyclopropyl-4-(5-((1-hydroxybutan-2-yl)amino)-7-(((tetrahydro-2H-pyran-4-yl)methyl)amino)pyrazolo[1,5-a]pyrimidin-3-yl)-2-methylbenzamide]
11 | ≤ 100 | ≤ 100 | 100 to 500 | ≤ 100 | ≤ 100 | < 100 | COCCNc1cc(Oc2ccccc2)nc2c(-c3ccc(C(=O)NC4CC4)c(C)c3)cnn12 [Example B13, N-cyclopropyl-4-(7-((2-methoxyethyl)amino)-5-phenoxypyrazolo[1,5-a]pyrimidin-3-yl)-2-methylbenzamide]
12 | ≤ 100 | ≤ 100 | ≤ 100 | ≤ 100 | ≤ 100 | < 100 | Cc1cc(-c2cnn3c(NCC4CCOCC4)cc(NC4CCCC4)nc23)ccc1C(=O)NC1CC1 [Example B14, 4-(5-(cyclopentylamino)-7-(((tetrahydro-2H-pyran-4-yl)methyl)amino)pyrazolo[1,5-a]pyrimidin-3-yl)-N-cyclopropyl-2-methylbenzamide]
13 | ≤ 100 | 100 to 500 |  | ≤ 100 |  | < 100 | Cc1cc(-c2cnn3c(NCC(C)C)cc(NC4CCOCC4)nc23)ccc1C(=O)NC1CC1 [Example B26, N-cyclopropyl-4-(7-(isobutylamino)-5-((tetrahydro-2H-pyran-4-yl)amino)pyrazolo[1,5-a]pyrimidin-3-yl)-2-methylbenzamide]
14 | ≤ 100 | ≤ 100 |  | ≤ 100 |  | < 100 | Cc1cc(-c2cnn3c(NC[C@H]4CC[C@H](O)CC4)cc(Oc4ccccc4)nc23)ccc1C(=O)NC1CC1 [Example B31, N-cyclopropyl-4-(7-((((1r,4r)-4-hydroxycyclohexyl)-methyl)amino)-5-phenoxypyrazolo[1,5-a]pyrimidin-3-yl)-2-methylbenzamide]
